Among the test systems are SF-295 CNS; HOP-92 NSCLC; LOX IMVI melanoma; KM12 colon; HT29 colon; SK-MEL-28 melanoma; NCI-H460 lung; OVCAR-3 ovarian; PC-3 prostate; A549 NSCLC.
Assay in all cases: growth of human tumour cells (NCI), 48 h

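Step 1: Grow cells in 96-well plates. Step 2: Expose to compound for 48 hours at 5 concentrations. Step 3: Interpolate endpoints linearly; if unreached, use highest concentration. At the GI50, growth is halved. TGI: total growth inhibition.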

For `COc1ccc2nc(-n3c(/C=C/c4ccccc4O)nc4ccccc4c3=O)sc2c1`, the TGI with SF-295 CNS, in the assay on HOP-92 NSCLC, in the assay on LOX IMVI melanoma, with KM12 colon, in the assay with HT29 colon and in the assay on SK-MEL-28 melanoma was above 100 µM in each case. Moreover, the TGI with NCI-H460 lung, in the assay with OVCAR-3 ovarian, in the assay on PC-3 prostate and with A549 NSCLC was above 100 µM throughout.

In the case of `CCSCCC(N)C(=O)O` (stereo not given), the TGI with SF-295 CNS, in the assay on HOP-92 NSCLC, in the assay with LOX IMVI melanoma, with KM12 colon, in the assay with HT29 colon and with SK-MEL-28 melanoma was above 100 µM in each case. In addition, the TGI in the assay with NCI-H460 lung, in the assay on OVCAR-3 ovarian, with PC-3 prostate and in the assay on A549 NSCLC was above 100 µM throughout.

With `COc1ccc(/C=C2\C(=O)N(C3OC(COC(C)=O)C(OC(C)=O)C(OC(C)=O)C3OC(C)=O)c3ccccc3N=C2N)cc1` (stereo not given), the TGI in the assay with SF-295 CNS was 72.1 µM; in the assay on HOP-92 NSCLC, above 100 µM; in the assay on LOX IMVI melanoma, 89.4 µM; in the assay on KM12 colon, above 100 µM; in the assay on HT29 colon it was 38 µM; in the assay on SK-MEL-28 melanoma it was 72.2 µM. Also, the TGI with NCI-H460 lung is 75.8 µM; with OVCAR-3 ovarian, 65.1 µM; in the assay with PC-3 prostate, 83.3 µM; in the assay with A549 NSCLC, above 100 µM.

With `CCOC(=O)C1(C(=O)OCC)Nc2cccnc2N(C)N1`, the TGI is above 100 µM with SF-295 CNS; 29.7 µM in the assay on HOP-92 NSCLC; 52.6 µM with LOX IMVI melanoma; above 100 µM in the assay with KM12 colon; 32.2 µM in the assay with HT29 colon; 93.8 µM with SK-MEL-28 melanoma. Further, the TGI in the assay with NCI-H460 lung is above 100 µM; in the assay with OVCAR-3 ovarian, 41.5 µM; in the assay with PC-3 prostate, 67.5 µM; in the assay with A549 NSCLC, above 100 µM.

`CCC1C(C#N)=C(N)OC2=C1C(=O)CC(C)(C)C2` (stereo not given): the TGI in the assay on SF-295 CNS, with HOP-92 NSCLC, in the assay on LOX IMVI melanoma, in the assay on KM12 colon, in the assay with HT29 colon and in the assay with SK-MEL-28 melanoma was above 100 µM each time. Besides, the TGI in the assay on NCI-H460 lung, with OVCAR-3 ovarian, in the assay on PC-3 prostate and in the assay on A549 NSCLC was above 100 µM each time.

As to `COc1ccc2nc(N/N=C/C(C)=N/Nc3cc(C)c4cc(OC)ccc4n3)cc(C)c2c1`, the TGI was 42.8 µM in the assay with SF-295 CNS; above 89.9 µM with HOP-92 NSCLC; 54.8 µM in the assay with LOX IMVI melanoma; 44.1 µM with KM12 colon; 28.7 µM with HT29 colon; 74.5 µM in the assay on SK-MEL-28 melanoma. Further, the TGI turned out to be 32.5 µM in the assay with NCI-H460 lung, 53.6 µM with OVCAR-3 ovarian, 45.6 µM with PC-3 prostate and 45.7 µM with A549 NSCLC.

In the case of `N=c1c2c(C(N)=O)cn(C3OC(CO)C(O)C3O)c2ncn1O` (stereo not given), the TGI in the assay with SF-295 CNS is 1.42 µM; in the assay on HOP-92 NSCLC, above 100 µM; in the assay on LOX IMVI melanoma, 0.438 µM; with KM12 colon, 0.753 µM; in the assay on HT29 colon it was 9.64 µM; with SK-MEL-28 melanoma it was 2.3 µM. Also, the TGI is above 20.4 µM in the assay on NCI-H460 lung, 0.943 µM with OVCAR-3 ovarian, 1.14 µM with PC-3 prostate and 2.11 µM with A549 NSCLC.

With `COc1ccc(/C(=C2/O[C@@H]([C@H]3COC(C)(C)O3)[C@H]3OC(C)(C)O[C@@H]23)c2cc(OC)c(OC)c(OC)c2)cc1O`, the GI50 is 18.7 µM in the assay on SF-295 CNS; 4 µM in the assay with HOP-92 NSCLC; 5.93 µM with LOX IMVI melanoma; 4.1 µM with KM12 colon; 26.5 µM with HT29 colon; 10.6 µM in the assay on SK-MEL-28 melanoma. Besides, the GI50 was 29.3 µM in the assay on NCI-H460 lung, 4.84 µM with OVCAR-3 ovarian, 4.12 µM in the assay with PC-3 prostate and 22.7 µM in the assay on A549 NSCLC. Further, the TGI in the assay on SF-295 CNS is 43.9 µM; with HOP-92 NSCLC, 38.3 µM; with LOX IMVI melanoma it was 22.8 µM; with KM12 colon it was 17.8 µM; in the assay on HT29 colon it was 52 µM; in the assay with SK-MEL-28 melanoma, above 100 µM. The TGI in the assay with NCI-H460 lung is above 100 µM; in the assay with OVCAR-3 ovarian, 43.3 µM; with PC-3 prostate, above 100 µM; in the assay on A549 NSCLC it was above 100 µM.

With `COc1cc(C=C2C(C)=NN(c3cccc(Cl)c3)C23SCC(=O)N3c2nc3ccccc3s2)ccc1O` (stereo not given), the TGI in the assay on SF-295 CNS is above 100 µM; with HOP-92 NSCLC, 45.4 µM; with LOX IMVI melanoma, above 69 µM; in the assay on KM12 colon, above 95.1 µM; in the assay with HT29 colon, above 100 µM; with SK-MEL-28 melanoma, above 100 µM. The TGI in the assay on NCI-H460 lung is above 100 µM; in the assay with OVCAR-3 ovarian it was above 80.1 µM; in the assay with PC-3 prostate, 58.1 µM; in the assay with A549 NSCLC, above 100 µM.

In the case of `COc1ccc2nc(-c3ccc(-c4noc(-c5cc(OC)c(OC)c(OC)c5)n4)cc3)[nH]c2c1`, the GI50 in the assay on SF-295 CNS was 15 µM; with HOP-92 NSCLC, 14.3 µM; in the assay with LOX IMVI melanoma, 13.3 µM; with KM12 colon, 7.52 µM; in the assay with HT29 colon, 2.7 µM; in the assay on SK-MEL-28 melanoma it was 9.59 µM. The GI50 in the assay on NCI-H460 lung is 4.6 µM; with OVCAR-3 ovarian it was 4.25 µM; in the assay on PC-3 prostate, 20.5 µM; in the assay on A549 NSCLC, 5.65 µM. The TGI stood at 38.3 µM in the assay on SF-295 CNS; 33.5 µM in the assay on HOP-92 NSCLC; 34.6 µM with LOX IMVI melanoma; 81.8 µM in the assay on KM12 colon; 15.2 µM with HT29 colon; 27 µM in the assay on SK-MEL-28 melanoma. Further, the TGI in the assay with NCI-H460 lung is 22.5 µM; with OVCAR-3 ovarian it was 12.9 µM; with PC-3 prostate, above 100 µM; in the assay with A549 NSCLC, 20.3 µM.

As for `Cc1nc(N)nc(N)c1-c1ccc(Cl)c(Cl)c1`, the TGI is above 100 µM in the assay on SF-295 CNS; 79.7 µM with HOP-92 NSCLC; above 100 µM in the assay with LOX IMVI melanoma; above 100 µM in the assay on KM12 colon; above 100 µM with HT29 colon; 47.1 µM with SK-MEL-28 melanoma. The TGI is above 92.1 µM in the assay with NCI-H460 lung, above 49 µM in the assay with OVCAR-3 ovarian, above 100 µM with PC-3 prostate and above 100 µM in the assay on A549 NSCLC.

The values are drawn from PubChem BioAssay (NCI).
